According to the supplement of paper PMC10307832:

Columns and labels:
Test in all cases: relative viability (nuclei count vs DMSO), 5 days (fraction); higher = more cells survive
HCC-15 = tested on: HCC-15
How it was run: (§1)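 One day after seeding in 1536-well plates, lung cancer cell lines were dosed by pin tool. Dosing was either single-drug or a fixed anchor-drug dose plus five library-drug doses (not always all listed) in √10 steps. After 5 days, nuclei were stained in one fix-and-stain step and counted on 4× images, and relative viability is the nuclei count of treated wells over that of vehicle wells, given as the median of duplicate plates.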

NCI-H358 = tested on: NCI-H358
How it was run: as §1

NCI-H1792 = tested on: NCI-H1792
How it was run: as §1

NCI-H23 = tested on: NCI-H23
How it was run: as §1

NCI-H1437 = tested on: NCI-H1437
How it was run: as §1

NCI-H1793 = tested on: NCI-H1793
How it was run: as §1

NCI-H1755 = tested on: NCI-H1755
How it was run: as §1

COR-L23 = tested on: COR-L23
How it was run: as §1

NCI-H2342 = tested on: NCI-H2342
How it was run: as §1

PC-14 = tested on: PC-14
How it was run: as §1

NCI-H2347 = tested on: NCI-H2347
How it was run: as §1

201T = tested on: 201T
How it was run: as §1

HCC-366 = tested on: HCC-366
How it was run: as §1

NCI-H1915 = tested on: NCI-H1915
How it was run: as §1

NCI-H2009 = tested on: NCI-H2009
How it was run: as §1

NCI-H1395 = tested on: NCI-H1395
How it was run: as §1

EMC-BAC-2 = tested on: EMC-BAC-2
How it was run: as §1

NCI-H650 = tested on: NCI-H650
How it was run: as §1

NCI-H2023 = tested on: NCI-H2023
How it was run: as §1

COR-L 105 = tested on: COR-L 105
How it was run: as §1

SK-MES-1 = tested on: SK-MES-1
How it was run: as §1

LC-2-ad = tested on: LC-2-ad
How it was run: as §1

CN1CCN(CCOc2cc(OC3CCOCC3)c3c(Nc4c(Cl)ccc5c4OCO5)ncnc3c2)CC1 [Saracatinib] + COc1cccc2cc(-c3nc([C@H]4CC[C@H](C(=O)O)CC4)n4ncnc(N)c34)[nH]c12 [OSI-027] (partner 0.5 µM) was tested, and the relative viability (HCC-15; first compound 0.02 µM) was 0.806, the relative viability (HCC-15; first compound 0.2 µM) was 0.586 and the relative viability (HCC-15; first compound 0.6325 µM) was 0.708. The relative viability (HCC-15; first compound 2 µM) was 0.605, the relative viability (NCI-H358; first compound 0.02 µM) was 0.707 and the relative viability (NCI-H358; first compound 0.2 µM) was 0.391. For the same molecule, the relative viability (NCI-H358; first compound 0.6325 µM) was 0.466, the relative viability (NCI-H358; first compound 2 µM) was 0.289 and the relative viability (NCI-H1792; first compound 0.02 µM) was 0.771. For the same molecule, the relative viability (NCI-H1792; first compound 0.2 µM) was 0.462, the relative viability (NCI-H1792; first compound 0.6325 µM) was 0.809 and the relative viability (NCI-H1792; first compound 2 µM) was 0.558. The relative viability (NCI-H23; first compound 0.02 µM) was 0.649, the relative viability (NCI-H23; first compound 0.2 µM) was 0.425 and the relative viability (NCI-H23; first compound 0.6325 µM) was 0.659. For the same molecule, the relative viability (NCI-H23; first compound 2 µM) was 0.503, the relative viability (NCI-H1437; first compound 0.02 µM) was 0.913 and the relative viability (NCI-H1437; first compound 0.2 µM) was 0.671. It also gave a relative viability (NCI-H1437; first compound 0.6325 µM) of 0.96, a relative viability (NCI-H1437; first compound 2 µM) of 0.812 and a relative viability (NCI-H1793; first compound 0.02 µM) of 0.303. It also gave a relative viability (NCI-H1793; first compound 0.6325 µM) of 0.312, a relative viability (NCI-H1793; first compound 2 µM) of 0.253 and a relative viability (NCI-H1755; first compound 0.02 µM) of 0.691. The relative viability (NCI-H1755; first compound 0.2 µM) was 0.643, the relative viability (NCI-H1755; first compound 0.6325 µM) was 0.706 and the relative viability (NCI-H1755; first compound 2 µM) was 0.634. For the same molecule, the relative viability (COR-L23; first compound 0.02 µM) was 0.698, the relative viability (COR-L23; first compound 0.2 µM) was 0.684 and the relative viability (COR-L23; first compound 0.6325 µM) was 0.746. For the same molecule, the relative viability (COR-L23; first compound 2 µM) was 0.641, the relative viability (NCI-H2342; first compound 0.02 µM) was 0.689 and the relative viability (NCI-H2342; first compound 0.2 µM) was 0.702. It also gave a relative viability (NCI-H2342; first compound 0.6325 µM) of 0.64, a relative viability (NCI-H2342; first compound 2 µM) of 0.637 and a relative viability (PC-14; first compound 0.02 µM) of 0.81. It also gave a relative viability (PC-14; first compound 0.2 µM) of 0.406, a relative viability (PC-14; first compound 0.6325 µM) of 0.151 and a relative viability (PC-14; first compound 2 µM) of 0.0888. For the same molecule, the relative viability (NCI-H2347; first compound 0.02 µM) was 0.348, the relative viability (NCI-H2347; first compound 0.2 µM) was 0.373 and the relative viability (NCI-H2347; first compound 0.6325 µM) was 0.406. The relative viability (NCI-H2347; first compound 2 µM) was 0.306, the relative viability (201T; first compound 0.02 µM) was 0.725 and the relative viability (201T; first compound 0.2 µM) was 0.53. For the same molecule, the relative viability (201T; first compound 0.6325 µM) was 0.752, the relative viability (201T; first compound 2 µM) was 0.445 and the relative viability (HCC-366; first compound 0.02 µM) was 1.02. The relative viability (HCC-366; first compound 0.6325 µM) was 0.757, the relative viability (HCC-366; first compound 2 µM) was 0.385 and the relative viability (NCI-H1915; first compound 0.02 µM) was 0.623. The relative viability (NCI-H1915; first compound 0.2 µM) was 0.408, the relative viability (NCI-H1915; first compound 0.6325 µM) was 0.587 and the relative viability (NCI-H1915; first compound 2 µM) was 0.474. For the same molecule, the relative viability (NCI-H2009; first compound 0.02 µM) was 0.628, the relative viability (NCI-H2009; first compound 0.2 µM) was 0.547 and the relative viability (NCI-H2009; first compound 0.6325 µM) was 0.579. It also gave a relative viability (NCI-H2009; first compound 2 µM) of 0.357, a relative viability (NCI-H1395; first compound 0.02 µM) of 0.618 and a relative viability (NCI-H1395; first compound 0.2 µM) of 0.613. For the same molecule, the relative viability (NCI-H1395; first compound 0.6325 µM) was 0.583, the relative viability (NCI-H1395; first compound 2 µM) was 0.485 and the relative viability (EMC-BAC-2; first compound 0.02 µM) was 0.412. The relative viability (EMC-BAC-2; first compound 0.2 µM) was 0.322, the relative viability (EMC-BAC-2; first compound 0.6325 µM) was 0.355 and the relative viability (EMC-BAC-2; first compound 2 µM) was 0.297. It also gave a relative viability (NCI-H650; first compound 0.02 µM) of 0.602, a relative viability (NCI-H650; first compound 0.2 µM) of 0.504 and a relative viability (NCI-H650; first compound 0.6325 µM) of 0.524. For the same molecule, the relative viability (NCI-H650; first compound 2 µM) was 0.493, the relative viability (NCI-H2023; first compound 0.02 µM) was 0.473 and the relative viability (NCI-H2023; first compound 0.2 µM) was 0.394. The relative viability (NCI-H2023; first compound 0.6325 µM) was 0.316, the relative viability (NCI-H2023; first compound 2 µM) was 0.273 and the relative viability (COR-L 105; first compound 0.02 µM) was 0.837. It also gave a relative viability (COR-L 105; first compound 0.2 µM) of 0.628, a relative viability (COR-L 105; first compound 0.6325 µM) of 0.566 and a relative viability (COR-L 105; first compound 2 µM) of 0.221. It also gave a relative viability (SK-MES-1; first compound 0.02 µM) of 0.609, a relative viability (SK-MES-1; first compound 0.2 µM) of 0.603 and a relative viability (SK-MES-1; first compound 0.6325 µM) of 0.475. For the same molecule, the relative viability (SK-MES-1; first compound 2 µM) was 0.234, the relative viability (LC-2-ad; first compound 0.02 µM) was 0.844 and the relative viability (LC-2-ad; first compound 0.2 µM) was 0.804. It also gave a relative viability (LC-2-ad; first compound 0.6325 µM) of 0.881 and a relative viability (LC-2-ad; first compound 2 µM) of 0.728.
